Each structure is given as a SMILES string. Counter-ions that a name gives are not always drawn.

One data set concerns Fibroblast cells. Briefly: Toxicity observed in hit confirmation. To be noted: highest screening concentration, sporadic PD fibroblast line. The format is cell-based, human. As for the experimental part: Fibroblast cells were plated in 6-well plates (VWR, 10861-554) on coverslips (Fisher scientific, 22-293232) at 400.000 cells/well and plates were incubated at 37° C., 5% CO2 for 24 hrs. Next, newly ordered chemical compounds dissolved in DMSO were added at defined concentrations and plates were incubated at 37° C./5% CO2 for 10 hrs. Then, FCCP (final concentration of 20 μM, Carbonyl cyanide 4-(trifluoromethoxy)phenylhydrazone, Sigma-Aldrich, C2920) in cell media was added to defined wells and plates were incubated at 37° C., 5% CO2 for another 14 hrs. Cells were fixed with ice-cold 90% methanol (Fisher, 482332) for 20 min at −20° C., incubated with blocking buffer (10% Normal Goat Serum (NGS) (ThermoFisher, 50062Z), 0.5% BSA (ThermoFisher, BP1600), 0.2% Triton X-100 (ThermoFisher, T8787)) at 25° C. for 15 min and incubated with anti-Miro1 (Sigma-Aldrich, HPA0101687) at 1:100 in blocking buffer O/N at 4° C. […]
Consider `O=C(O)CCC(=O)c1ccc(-c2ccccc2)cc1` [Fenbufen], for which the Toxicity result is “appeared toxic”.

The test system of the next data set is Miro1. Briefly: Hit confirmation: immunocytochemistry and confocal microscopy of Miro1 in sporadic PD fibroblasts. The format is cell-based, human. As to conditions: DMSO instead of FCCP, with compound at highest screening concentration; sporadic PD line; at least 4 biological replicates. As for the experimental part: Fibroblast cells were plated in 6-well plates (VWR, 10861-554) on coverslips (Fisher scientific, 22-293232) at 400.000 cells/well and plates were incubated at 37° C., 5% CO2 for 24 hrs. Next, newly ordered chemical compounds dissolved in DMSO were added at defined concentrations and plates were incubated at 37° C./5% CO2 for 10 hrs. Then, FCCP (final concentration of 20 μM, Carbonyl cyanide 4-(trifluoromethoxy)phenylhydrazone, Sigma-Aldrich, C2920) in cell media was added to defined wells and plates were incubated at 37° C., 5% CO2 for another 14 hrs. Cells were fixed with ice-cold 90% methanol (Fisher, 482332) for 20 min at −20° C., incubated with blocking buffer (10% Normal Goat Serum (NGS) (ThermoFisher, 50062Z), 0.5% BSA (ThermoFisher, BP1600), 0.2% Triton X-100 (ThermoFisher, T8787)) at 25° C. for 15 min and incubated with anti-Miro1 (Sigma-Aldrich, HPA0101687) at 1:100 in blocking buffer O/N at 4° C. Samples were washed three times with 1×PBS (ThermoFisher, 10010-049), incubated with goat anti-Rabbit IgG (H+L) Cross-Adsorbed, Alexa Fluor 488 (ThermoFisher, A11008) at 1:500 in blocking buffer at 25° C. for 2 hrs and washed again three times with lx PBS, and finally samples were mounted with ProLong™ Glass Antifade Mountant with NucBlue™ Stain (hard-setting, Thermofisher, P36983) on glass slides and allowed to cure O/N. Samples were imaged at 25° C. with a 20×/N.A.0.60 oil Plan-Apochromat objective on a Leica SPE laser scanning confocal microscope (JH Technologies), with identical imaging parameters among different genotypes. Images were processed with ImageJ (Ver. 1.48, NIH) using the Intensity Ratio Nuclei Cytoplasm Tool (http://dev.mri.cnrs.fr/projects/imagej-macros/wiki/Intensity_Ratio_Nuclei_Cytoplasm_Tool), and average cytoplasmic intensity (the average intensity in the cytoplasm area) was plotted.
To reduce experimental bias such as the freshness the compounds, experimental reagents, and imaging devices, the 14 hits identified in the high-throughput screening were verified individually . The 14 compounds were tested at their highest screening concentrations with at least 4 biological replicates, using the same sporadic PD line. […] Samples were imaged with identical settings under the confocal microscope, and negative controls without primary antibodies yielded no signals under the imaging settings.
For `COC(=O)C1=C(C)NC(C)=C(C(=O)OC2CCCN(Cc3ccccc3)C2)C1c1cccc([N+](=O)[O-])c1` (stereo not drawn) [Benidipine HCl], the “Basal Miro1 levels (without mitochondrial depolarization)” value is “no impact on basal Miro1 levels”.

For the compound `CN(C)CCC[C@@]1(c2ccc(F)cc2)OCc2cc(C#N)ccc21` [Escitalopram Oxalate], the “Basal Miro1 levels (without mitochondrial depolarization)” value is given as “already reduced Miro1 protein at baseline”.

Take `CN(CCCN1c2ccccc2CCc2ccccc21)CC(=O)c1ccc(Cl)cc1` [Lofepramine]: the “Basal Miro1 levels (without mitochondrial depolarization)” value is listed as “already reduced Miro1 protein at baseline”. Regarding `CC[C@H](C)C(=O)O[C@H]1C[C@H](O)C=C2C=C[C@H](C)[C@H](CC[C@@H](O)C[C@@H](O)CC(=O)O)[C@H]21` [Pravastatin Sodium], the “Basal Miro1 levels (without mitochondrial depolarization)” value is recorded as “already reduced Miro1 protein at baseline”.

The test system of the next data set is Miro1. The experiment in a line: High-throughput screening assay for Miro1 reduction after FCCP (immunostaining, 384-well). The format is cell-based, human. To be noted: Table 1A hits; 10 μM tested; PD patient fibroblasts, following FCCP treatment (20 μM, 14 hr). As for the experimental part:
Human dermal primary fibroblasts isolated from a PD patient (ND33424) and a healthy control (ND36091) were cultured in cell media DMEM (ThermoFisher, 11995-065) supplemented with 10% fetal bovine serum (Gemini Bio-Products, 900-108, heat-inactivated), 1×Anti Anti (ThermoFisher, 15240096), and 1×GlutaMax (ThermoFisher, 35050061) maintained in a 37° C., 5% CO2 incubator with humidified atmosphere.
Fibroblast cells were plated onto clear-bottomed/black-walled 384-well plates (EK-30091, E&K Scientific, Santa Clara, Calif.) at 2000 cells/well with Matrix Wellmate dispenser (Thermo Scientific, Sunnyvale, Calif.) and plates were incubated at 37° C., 5% CO2 for 24 hrs. Next, chemical library compounds at defined concentrations, were added using fully automated liquid handling system Caliper Life Sciences Staccato system with a Twister II robot and a Sciclone ALH3000 (Caliper Life Sciences, Alameda, Calif. USA) integrated with a V&P Scientific pin tool and plates were incubated at 37° C./5% CO2 for 10 hrs. Then, 20 μM of FCCP (Carbonyl cyanide 4-(trifluoromethoxy)phenylhydrazone, Sigma-Aldrich, C2920) in cell media was added to defined wells and plates were incubated at 37° C., 5% CO2 for another 14 hr. Cells were fixed with ice-cold 90% methanol (Fisher, 482332) for 20 min at −20° C., incubated with blocking buffer (10% Normal Goat Serum (NGS) (ThermoFisher, 50062Z), 0.5% BSA (ThermoFisher, BP1600), 0.2% Triton X-100 (ThermoFisher, T8787) at room temperature (RT) for 15 min, and incubated with anti-Miro1 solution (Sigma-Aldrich, HPA0101687) at 1:100 in blocking buffer O/N at 4° C. Samples were washed with lx PBS (ThermoFisher, 10010-049) using a Plate Washer multivalve (Bio-Tek, ELx405UV), incubated with goat anti-Rabbit IgG (H+L) Cross-Adsorbed, Alexa Fluor 488 (ThermoFisher, A11008) at 1:500 in blocking buffer at 25° C. for 2 hrs and washed again with lx PBS, finally 1.0 μg/mL DAPI (ThermoFisher, D1306) in 1×PBS was added and plates were sealed using PlateLoc (Velocity11, 01867.001). All liquids were dispensed using the Multidrop 384 (Titertek, 5840200) unless otherwise stated. Fluorescent signals in plates were automatically imaged with ImageXpress Micro (Molecular Devices, IXMicro) and data were analyzed with MetaXpress Analysis (Molecular Devices). The percent of Miro1 reduction was calculated as % Positive Cells for Miro1/Median=[(Positive Cells Miro Integrated Intensity/All Nuclear Miro Integrated Intensity)−Plate Median of this same calculation (Median % Positive Miro/Nuclear Miro in Plate Data)]/[Plate Median of this same calculation (Median % Positive Miro/Nuclear Miro in Plate Data)]. Positive cells are cells having Miro1 immunostaining. […] Negative value indicates a reduction in Miro. Positive value indicates an increase in Miro. The screening and data analysis were carried out together with Stanford University High-Throughput Bioscience Centers (HTBC).
Drugs from the NIH Clinical collection library were screened at a defined 10 μM concentration with 4 biological repeats for each drug (377 compounds). […] These compounds are ranked in the order of the degree of Miro1 reduction (Table 1A). 12 small molecules that reduced Miro1 protein levels in 3 out of 4 biological repeats were ranked in order of degree of Miro1 reduction. […] These hits were ranked in order of the degree of Miro1 reduction, with the six compounds found to reduce Miro1 protein levels by 20% or more shown (Table 1A). Moreover, an additional 12 small molecules reduced Miro1 protein levels in 3 out of 4 biological repeats (Table 1B). We next screened the Biomol FDA library with 5-fold doses (1.25-2.5-5-10-20 μM) and in duplicate. […] We ranked these 3 hits in the order of the degree of Miro1 reduction (Table 1A). Taken together, we identified 14 actives (2.5% primary hit rate) and 12 potential actives.
Take `COC(=O)C1=C(C)NC(C)=C(C(=O)OC2CCCN(Cc3ccccc3)C2)C1c1cccc([N+](=O)[O-])c1` (stereo not drawn) [Benidipine HCl]: the “% Miro1 decrease in screen” value is “A (Reduction of Miro levels by >30%)”. Take `CN(C)CCC[C@@]1(c2ccc(F)cc2)OCc2cc(C#N)ccc21` [Escitalopram Oxalate]: the “% Miro1 decrease in screen” value is “A (Reduction of Miro levels by >30%)”. As to `C[N+]1(C)CCC(OC(=O)C(O)(c2ccccc2)C2CCCC2)C1` (stereo not drawn) [Glycopyrrolate], the “% Miro1 decrease in screen” value is “B (Reduction of Miro levels by >20% and less than 30%)”.

Turning to `CNC(=O)Oc1ccc2c(c1)[C@]1(C)CCN(C)[C@@H]1N2C` [Physostigmine], the “% Miro1 decrease in screen” value was “B (Reduction of Miro levels by >20% and less than 30%)”.

With `Cn1nnc2c(C(N)=O)ncn2c1=O` [Temozolomide], the “% Miro1 decrease in screen” value was “A (Reduction of Miro levels by >30%)”. Regarding `COc1ccc(/C=C/C(=O)Nc2ccccc2C(=O)O)cc1OC` [Tranilast], the “% Miro1 decrease in screen” value is “B (Reduction of Miro levels by >20% and less than 30%)”.

Still in this data set, the particulars now being: Table 1B additional small molecules (3 out of 4 biological repeats); 10 μM tested; following FCCP treatment.
As for `CC(C(=O)O)c1ccc(-c2ccccc2)c(F)c1` (stereo not drawn) [Flurbiprofen], the “% Miro1 decrease in screen” value is “B (Reduction of Miro levels by >20% and less than 30%)”. Turning to `CC(C(=O)O)c1ccc(CC2CCCC2=O)cc1` (stereo not drawn) [Loxoprofen], the “% Miro1 decrease in screen” value was “B (Reduction of Miro levels by >20% and less than 30%)”. For `COc1ccc2[nH]c([S+]([O-])Cc3ncc(C)c(OC)c3C)nc2c1` (stereo not drawn) [Omeprazole], the “% Miro1 decrease in screen” value was “C (Reduction of Miro by >10% and less than 20%)”. On to `C[C@H]1COc2c(C3(N)CC3)c(F)cc3c(=O)c(C(=O)O)cn1c23` [Pazufloxacin], for which the “% Miro1 decrease in screen” value was “B (Reduction of Miro levels by >20% and less than 30%)”.

The values are drawn from US20220334133A1, “METHODS AND COMPOUNDS MODIFYING MITOCHONDRIAL FUNCTION” (The Board of Trusteesof the Leland Stanford Junior …, priority 2019, published 2022).
